Measurements as given in patent publication US9051339B2, “Sulfur-containing bicyclic compound” (Astellas Pharma Inc., priority 2013, dated 2015).
Structures can show the parent of a compound that is named as a salt.

Molecular target: T1, GABAB receptor (Mus musculus, UniProt Q80T41+Q9WV18)
T1 construct: a mouse brain cortex membrane (4 μg); tissue Japan SLC, Inc. (ddY mice); host or cells: mouse brain cortex membrane
Test: [35S]GTPγS binding test for PAM action, mouse brain cortical membrane
Type: biochemical
Settings: 100 μM GABA = 100%; for EC50: concentration raising reaction rate from 20% with 0.3 μM GABA to 50%, mouse brain cortex membrane, read-out: Potency (PAM Potency of GABAB); for Emax: read-out: Efficacy (PAM Efficacy of GABAB)
Experimental: The function of the GABAB receptor of the compound of the present invention was evaluated using a [^35S] GTPγS binding test. This method is used for the detection of the PAM action of the compound on the GABAB receptor (Journal of Pharmacology and Experimental Therapeutics, 2003, vol. 307(1), p. 322-330; and Molecular Pharmacology, 2001, vol. 60(5), p. 963-971).
The mouse brain cortical membrane was prepared with reference to a method for preparing a rat brain membrane (European Journal of Pharmacology, 1990, vol. 187 (1), p. 27-38).
The cortex (about 30 g) was cut out of the brains of 90 ddY mice (Japan SLC, Inc.). An A buffer was added to the cortex (cortex/A buffer=about 1:3 (wt/vol)), and homogenized with a glass Teflon-lined homogenizer (Teflon: registered trademark) on ice. The homogenate was centrifuged (750 g, 10 min, 4° C.) and a supernatant was then obtained. An A buffer (90 mL) was added to pellets and homogenized on ice, and a supernatant (750 g, 10 min, 4° C.) was then obtained. By repeating this operation, the supernatant was collected.
The supernatant was centrifuged (18000 g, 15 min, 4° C.). Ultrapure water (54 mL) was added to the pellets, left to stand for 30 min on ice, and then centrifuged (39000 g, 20 min, 4° C.). The pellets were suspended in a KH buffer (54 mL), repeatedly frozen and thawed, and centrifuged (18000 g, 15 min) at 4° C. The buffer was added to the pellets and then frozen and thawed, and this operation was repeated until the centrifugation. By a Bradford method using a protein assay (Protein assay CBB solution; Nacalai Tesque, Inc.), a KH buffer suspension of the pellet was prepared at a protein concentration of 10 mg/mL.
The PAM action of the GABAB receptor in the mouse brain cortex of a test drug was evaluated. To each of wells of a 96-well microplate, a test drug diluted with a B buffer at each concentration (3 nM to 30 μM), a mouse brain cortex membrane (4 μg), [^35S] GTPγS (final concentration of 0.34 nM, Muromachi Yakuhin Co., Ltd.; Institute of Isotopes Co., Ltd.), GABA (final concentration of 0.3 μM; Sigma) were added in this order, followed by standing at room temperature for 1 hour. With a harvester (Filtermate, Perkin-Elmer, Inc.), the suspension was suction-filtered through a glass filter (UniFilter 96-well GF/B filter plates, Perkin-Elmer, Inc.). The glass filter was washed with a C buffer that had been ice-cooled. After drying the glass filter, a liquid scintillation cocktail (50 μL, MicroScinti-PS; PerkinElmer, Inc.) was added to each well. The amount of [^35S] GTPγS bound to the membrane was measured on a plate reader (TopCount, PerkinElmer, Inc.).
The maximum reaction rate of 100 μM GABA was taken as 100%. […] At a time when the test drug was not added, the concentration of the test drug that increased the reaction rate from 20% with 0.3 μM GABA to 50% was taken as a PAM Potency (μM) of the GABAB of the test drug. In the presence of 0.3 μM GABA, the maximum reaction rate of the effect on the GABAB receptor when the test drug was administered up to maximum 30 μM was taken as a PAM Efficacy (%) of the GABAB of the test drug.
The Potency and Efficacy of several representative Example Compounds of the present invention are shown in Table below (In the Table, Ex represents Example Compound No. The “Potency” represents the PAM Potency of GABAB of the test drug, and the “Efficacy” represents PAM Efficacy (%) of GABAB of the test drug. These shall apply hereinafter).

[1] = maximum reaction rate in presence of 0.3 μM GABA, test drug up to 30 μM

T1 sequence (Q9WV18 20-960): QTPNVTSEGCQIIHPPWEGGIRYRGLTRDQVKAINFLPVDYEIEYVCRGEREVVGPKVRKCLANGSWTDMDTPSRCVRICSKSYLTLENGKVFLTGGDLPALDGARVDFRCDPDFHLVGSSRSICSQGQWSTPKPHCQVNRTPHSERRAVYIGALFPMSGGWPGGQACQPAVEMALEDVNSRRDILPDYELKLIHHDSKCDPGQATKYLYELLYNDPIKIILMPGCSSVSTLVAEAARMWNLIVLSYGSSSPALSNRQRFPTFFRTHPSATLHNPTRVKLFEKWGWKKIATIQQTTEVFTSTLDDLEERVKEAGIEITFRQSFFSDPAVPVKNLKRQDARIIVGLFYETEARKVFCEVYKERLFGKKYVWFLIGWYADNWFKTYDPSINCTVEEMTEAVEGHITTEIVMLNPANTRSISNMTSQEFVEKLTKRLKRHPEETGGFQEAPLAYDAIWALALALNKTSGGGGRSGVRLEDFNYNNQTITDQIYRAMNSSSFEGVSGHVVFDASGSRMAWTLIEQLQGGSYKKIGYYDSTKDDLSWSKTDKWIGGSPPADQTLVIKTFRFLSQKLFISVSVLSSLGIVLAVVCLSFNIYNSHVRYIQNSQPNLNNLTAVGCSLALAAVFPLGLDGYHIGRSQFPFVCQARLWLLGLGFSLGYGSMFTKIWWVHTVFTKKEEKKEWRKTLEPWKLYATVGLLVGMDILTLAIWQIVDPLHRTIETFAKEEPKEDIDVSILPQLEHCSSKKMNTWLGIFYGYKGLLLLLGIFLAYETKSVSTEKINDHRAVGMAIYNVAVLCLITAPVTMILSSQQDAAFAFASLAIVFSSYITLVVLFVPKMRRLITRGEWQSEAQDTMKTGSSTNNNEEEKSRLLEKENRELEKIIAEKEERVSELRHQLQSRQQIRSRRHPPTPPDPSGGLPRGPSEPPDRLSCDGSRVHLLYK
T1 sequence (Q80T41 41-940): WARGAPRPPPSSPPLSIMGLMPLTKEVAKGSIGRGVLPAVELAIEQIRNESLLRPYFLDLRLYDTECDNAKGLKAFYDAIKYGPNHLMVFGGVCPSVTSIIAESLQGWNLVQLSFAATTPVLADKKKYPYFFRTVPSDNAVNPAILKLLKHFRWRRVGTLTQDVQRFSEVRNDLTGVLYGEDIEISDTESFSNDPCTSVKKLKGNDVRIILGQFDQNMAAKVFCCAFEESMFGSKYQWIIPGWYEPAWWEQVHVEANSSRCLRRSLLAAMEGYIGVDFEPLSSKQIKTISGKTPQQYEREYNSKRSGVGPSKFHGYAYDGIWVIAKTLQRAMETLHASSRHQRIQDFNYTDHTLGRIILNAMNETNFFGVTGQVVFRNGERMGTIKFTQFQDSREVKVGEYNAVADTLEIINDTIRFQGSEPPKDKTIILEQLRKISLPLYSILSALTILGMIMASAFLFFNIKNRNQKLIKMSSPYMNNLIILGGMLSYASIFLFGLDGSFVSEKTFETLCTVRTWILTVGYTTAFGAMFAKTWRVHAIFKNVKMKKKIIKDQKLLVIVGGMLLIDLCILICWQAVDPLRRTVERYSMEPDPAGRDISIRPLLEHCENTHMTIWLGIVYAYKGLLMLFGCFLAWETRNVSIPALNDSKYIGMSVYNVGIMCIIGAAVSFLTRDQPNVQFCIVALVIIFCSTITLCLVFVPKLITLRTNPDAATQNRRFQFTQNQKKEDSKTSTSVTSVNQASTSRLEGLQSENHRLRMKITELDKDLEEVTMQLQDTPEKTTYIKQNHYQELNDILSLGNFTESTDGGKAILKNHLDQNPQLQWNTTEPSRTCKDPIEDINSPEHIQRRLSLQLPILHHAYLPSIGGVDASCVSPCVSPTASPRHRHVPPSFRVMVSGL

| EC50 | Efficacy (PAM Efficacy of GABAB) [1] | Emax [1] | SMILES |
| --- | --- | --- | --- |
| 180 nM | 191% | – | Cc1nc(CN2CC[C@@H](O)[C@H](O)C2)c2cc(C3CCC(C)(C)CC3)sc2n1 (single isomer, unassigned) [Ex31-1, trans-1-{[6-(4,4-dimethylcyclohexyl)-2-methylthieno[2,3-d]pyrimidin-4-yl]methyl}piperidine-3,4-diol] |
| 440 nM | – | 134% | Cc1nc(CN2CCCC(C)(C)C2)c2cc(C3CCC(C)(C)CC3)sc2n1 [Ex45] |
| 7.1 nM | – | 214% | Cc1nc(CN2CCC(O)CC2(C)C)c2cc(C3CCC(C)(C)CC3)sc2n1 (stereo not drawn) [Ex142] |
| 46 nM | – | 159% | Cc1nc(CN2CCN(C(=O)CO)CC2(C)C)c2cc(C3CCC(C)(C)CC3)sc2n1 [Ex155, 1-(4-{[6-(4,4-dimethylcyclohexyl)-2-methylthieno[2,3-d]pyrimidin-4-yl]methyl}-3,3-dimethylpiperazin-1-yl)-2-hydroxyethanone] |
| 110 nM | – | 338% | Cc1nc(CN2CCC(O)C(CO)C2)c2cc(C3CCC(C)(C)CC3)sc2n1 (stereo not drawn) [Ex127] |
| 530 nM | – | 203% | Cc1nc(CN2CCOC(C)(C)C2)c2cc(C3CCC(C)(C)CC3)sc2n1 [Ex40] |
| 200 nM | – | 161% | Cc1nc(CN2CCC(O)(CO)CC2)c2cc(C3CCC(C)(C)CC3)sc2n1 [Ex4] |
| 380 nM | – | 134% | Cc1nc(CN2CCOC[C@H]2CO)c2cc(C3CCC(C)(C)CC3)sc2n1 [Ex101] |
| 230 nM | – | 377% | Cc1nc(CN2CCC(O)(C(F)(F)F)CC2)c2cc(C3CCC(C)(C)CC3)sc2n1 [Ex12] |
| 320 nM | – | 88% | Cc1nc(CN2CC[C@@H](O)[C@@H](O)C2)c2cc(C3CCC(C)(C)CC3)sc2n1 [Ex54] |
| 200 nM | – | 176% | Cc1nc(CN2CCS(=O)(=O)CC2)c2cc(C3CCC4(CC3)CC4)sc2n1 [Ex108, 4-[(1,1-dioxidothiomorpholin-4-yl)methyl]-2-methyl-6-(spiro[2.5]octa-6-yl)thieno[2,3-d]pyrimidine] |
| 270 nM | – | 119% | Cc1nc(CN2CCC(C)(C)CC2)c2cc(C3CCC(C)(C)CC3)sc2n1 [Ex44] |
| 1200 nM | – | 182% | Cc1nc(CN2CC[C@@H](O)[C@@H](F)C2)c2cc(C3CCC(C)(C)CC3)sc2n1 [Ex143] |
| 59 nM | – | 180% | CC(=O)N1CCN(Cc2nc(C)nc3sc(C4CCC(C)(C)CC4)cc23)C(C)(C)C1 [Ex153, 1-(4-{[6-(4,4-dimethylcyclohexyl)-2-methylthieno[2,3-d]pyrimidin-4-yl]methyl}-3,3-dimethylpiperazin-1-yl)ethanone hydrochloride] |
| 240 nM | – | 139% | Cc1nc(CN2CCC(CO)(CO)CC2)c2cc(C3CCC(C)(C)CC3)sc2n1 [Ex7] |
| 310 nM | – | 182% | Cc1nc(CN2CC[C@H](O)[C@@H](F)C2)c2cc(C3CCC(C)(C)CC3)sc2n1 [Ex144] |
| 46 nM | – | 230% | Cc1nc(CN2CCOCC2(C)C)c2cc(C3CCC(C)(C)CC3)sc2n1 [Ex79] |
| 120 nM | – | 168% | Cc1nc(CN2CCN(C)CC2(C)C)c2cc(C3CCC(C)(C)CC3)sc2n1 [Ex151] |

| EC50 | Efficacy (PAM Efficacy of GABAB) [1] | Emax [1] | SMILES |
| --- | --- | --- | --- |
| 150 nM | – | 249% | Cc1nc(CN2CCC(O)C(F)C2)c2cc(C3CCC(C)(C)CC3)sc2n1 (stereo not drawn) [Ex51] |
| 180 nM | – | 188% | COC1(CO)CCN(Cc2nc(C)nc3sc(C4CCC(C)(C)CC4)cc23)CC1 [Ex46] |
| 150 nM | – | 218% | Cc1nc(CN2CCOCC2)c2cc(C3CCC(C)(C)CC3)sc2n1 [Ex132] |
| 240 nM | – | 160% | Cc1nc(CN2CCC(C(F)F)CC2)c2cc(C3CCC(C)(C)CC3)sc2n1 [Ex61] |
| 120 nM | – | 240% | Cc1nc(CN2CCC(C)(O)CC2)c2cc(C3CCC(C)(C)CC3)sc2n1 [Ex47] |
| 260 nM | – | 238% | CCC1(O)CCN(Cc2nc(C)nc3sc(C4CCC(C)(C)CC4)cc23)CC1 [Ex48] |
| 250 nM | – | 175% | Cc1nc(CN2CCC(F)(F)CC2)c2cc(C3CCC(C)(C)CC3)sc2n1 [Ex55] |
| 89 nM | – | 289% | Cc1nc(CN2CCC[C@@H](O)C2)c2cc(C3CCC(C)(C)CC3)sc2n1 [Ex72] |
| 170 nM | – | 259% | Cc1nc(CN2CCC(O)CC2)c2cc(C3CCC(C)(C)CC3)sc2n1 [Ex52, 1-{[6-(4,4-dimethylcyclohexyl)-2-methylthieno[2,3-d]pyrimidin-4-yl]methyl}piperidin-4-ol hydrochloride] |
| 85 nM | – | 272% | Cc1nc(CN2CCC[C@H](O)C2)c2cc(C3CCC(C)(C)CC3)sc2n1 [Ex73] |
| 240 nM | – | 176% | Cc1nc(CN2CC[C@@H](O)[C@H](O)C2)c2cc(C3CCC(C)(C)CC3)sc2n1 [Ex5] |
| 540 nM | – | 222% | COCC1(O)CCN(Cc2nc(C)nc3sc(C4CCC(C)(C)CC4)cc23)CC1 [Ex50] |
| 190 nM | – | 244% | Cc1nc(CN2CCSCC2)c2cc(C3CCC(C)(C)CC3)sc2n1 [Ex74] |
| 79 nM | – | 218% | Cc1nc(CN2CC[C@@H](O)[C@](C)(O)C2)c2cc(C3CCC(C)(C)CC3)sc2n1 [Ex104] |
| 420 nM | – | 165% | Cc1nc(CN2C[C@@H](C)O[C@@H](C)C2)c2cc(C3CCC(C)(C)CC3)sc2n1 [Ex39] |
| 100 nM | – | 258% | Cc1nc(CN2CCC(O)C(C)(C)C2)c2cc(C3CCC(C)(C)CC3)sc2n1 (stereo not drawn) [Ex146] |
| 260 nM | – | 118% | Cc1nc(CN2CCC3(CC2)CC3)c2cc(C3CCC(C)(C)CC3)sc2n1 [Ex43] |
| 400 nM | – | 127% | Cc1nc(CN2CCOC[C@@H]2CO)c2cc(C3CCC(C)(C)CC3)sc2n1 [Ex102] |
